From paper PMC7044277 (Nature Communications, 2020)
“And” between values parts separate entries of the source, which are not always exact repeats. Identical values can stand only once.

Columns and labels:
Type in all cases: cell-based
320 non-olfactory GPCRs [1] = molecular target: T1, 320 non-olfactory GPCRs (Homo sapiens, UniProt Q96P68); details: receptor OXGR1; replicate values, Fig_4g
T1 construct: expressed in transfected cells; host or cells: HTLA cells

320 non-olfactory GPCRs [2] = molecular target: T2, 320 non-olfactory GPCRs (Homo sapiens, UniProt Q9Y5X5); details: receptor NPFF2; replicate values, Fig_4g
T2 construct: expressed in transfected cells; host or cells: HTLA cells
T2 sequence (Q9Y5X5 whole entry): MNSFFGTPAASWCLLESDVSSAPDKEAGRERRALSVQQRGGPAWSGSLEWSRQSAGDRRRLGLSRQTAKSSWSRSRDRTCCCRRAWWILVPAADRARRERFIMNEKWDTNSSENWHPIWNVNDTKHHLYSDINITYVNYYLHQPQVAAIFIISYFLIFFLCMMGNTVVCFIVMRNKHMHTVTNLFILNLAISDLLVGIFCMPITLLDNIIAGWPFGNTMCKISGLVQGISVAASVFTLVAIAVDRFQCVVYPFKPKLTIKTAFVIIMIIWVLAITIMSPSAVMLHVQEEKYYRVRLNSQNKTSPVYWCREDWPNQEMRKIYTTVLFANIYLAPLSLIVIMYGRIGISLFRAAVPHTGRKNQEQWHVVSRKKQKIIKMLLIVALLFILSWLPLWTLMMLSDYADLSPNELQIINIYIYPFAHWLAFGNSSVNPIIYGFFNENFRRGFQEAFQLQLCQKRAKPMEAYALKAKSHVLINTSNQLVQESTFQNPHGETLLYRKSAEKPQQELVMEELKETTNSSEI

320 non-olfactory GPCRs [3] = molecular target: T3, 320 non-olfactory GPCRs (Homo sapiens, UniProt Q9GZQ6); details: receptor NPFF1; replicate values, Fig_4g
T3 construct: expressed in transfected cells; host or cells: HTLA cells
T3 sequence (Q9GZQ6 whole entry): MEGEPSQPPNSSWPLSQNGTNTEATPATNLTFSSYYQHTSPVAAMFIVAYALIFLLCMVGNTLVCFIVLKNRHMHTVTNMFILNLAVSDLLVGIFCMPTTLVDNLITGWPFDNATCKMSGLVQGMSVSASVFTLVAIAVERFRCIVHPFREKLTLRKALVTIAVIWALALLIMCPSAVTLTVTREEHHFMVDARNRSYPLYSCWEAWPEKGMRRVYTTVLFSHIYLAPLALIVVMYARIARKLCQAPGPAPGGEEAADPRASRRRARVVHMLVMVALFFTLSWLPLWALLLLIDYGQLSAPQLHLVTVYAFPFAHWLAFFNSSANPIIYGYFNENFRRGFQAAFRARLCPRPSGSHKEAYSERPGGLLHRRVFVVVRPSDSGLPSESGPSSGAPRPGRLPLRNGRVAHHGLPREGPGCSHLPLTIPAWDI

320 non-olfactory GPCRs [4] = molecular target: T4, 320 non-olfactory GPCRs (Homo sapiens, UniProt Q8IZF7)
T4 construct: expressed in transfected cells; host or cells: HTLA cells
T4 sequence (Q8IZF7 whole entry): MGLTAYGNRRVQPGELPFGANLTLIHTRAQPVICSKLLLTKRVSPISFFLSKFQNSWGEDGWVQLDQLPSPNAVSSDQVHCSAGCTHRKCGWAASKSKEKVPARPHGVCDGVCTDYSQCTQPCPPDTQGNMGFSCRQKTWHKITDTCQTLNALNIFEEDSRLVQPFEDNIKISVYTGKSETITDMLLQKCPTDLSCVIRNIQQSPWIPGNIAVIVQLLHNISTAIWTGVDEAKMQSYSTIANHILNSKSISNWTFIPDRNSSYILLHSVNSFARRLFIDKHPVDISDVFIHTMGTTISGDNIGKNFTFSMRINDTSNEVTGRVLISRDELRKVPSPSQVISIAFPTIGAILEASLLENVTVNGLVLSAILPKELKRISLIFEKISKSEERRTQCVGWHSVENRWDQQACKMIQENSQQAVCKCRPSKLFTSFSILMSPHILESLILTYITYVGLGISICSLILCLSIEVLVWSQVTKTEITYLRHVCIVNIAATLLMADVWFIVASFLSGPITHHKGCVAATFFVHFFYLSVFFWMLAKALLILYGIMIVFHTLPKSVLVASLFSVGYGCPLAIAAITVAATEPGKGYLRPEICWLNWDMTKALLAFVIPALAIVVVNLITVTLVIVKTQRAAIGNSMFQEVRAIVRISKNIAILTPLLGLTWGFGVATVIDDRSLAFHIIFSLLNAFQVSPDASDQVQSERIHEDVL
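Throughout, for Fold of Basal: compound tested at 1 µM final concentration.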
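Throughout, for GPCRome agonism screen response: fold over basal response of each receptor without drug.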

## CCOc1cccc2cc(C(C)NCC3(O)CCCCC3)oc12 (stereo not shown) [O4LE6]
320 non-olfactory GPCRs [1]
  GPCRome agonism screen response: 1.363 and 1.785 and 0.5079 and 1.083
320 non-olfactory GPCRs [2]
  GPCRome agonism screen response: 1.684 and 1.1 and 0.9323 and 0.6942
320 non-olfactory GPCRs [3]
  GPCRome agonism screen response: 1.802 and 0.79 and 0.7669 and 0.6228
320 non-olfactory GPCRs [4]
  Fold of Basal: 0.7426 and 0.9005 and 0.7298 and 0.9165
